Experimental data reported in US20110212185A1, “WATER THAT EXPRESSES PATHOGEN-RESISTANCE GENES (PR GENE CLUSTERS) TO ENCODE PLANT IMMUNOPROTEINS, A METHOD OF PREVENTING PLANT DISEASES USING THE WATER, AND A DEVICE FOR PRODUCING THE WATER” (priority 2008, published 2011).

Key:
[1] = test system: plant body or plant cells; conditions: supplied directly to plant body or plant cells; 'or more'; cited from earlier work
[2] = test system: carp; conditions: data sheet of Hokho lateral-row Oryzemate granular wettable powder; cited from earlier work
[3] = CLA chemiluminescence measurement of superoxide anion radicals in water; assay type: physicochemical; conditions: KO2 marker in FIG. 4; extinguished within several milliseconds
Experimental: The measurement of the superoxide anion radicals in water is performed in the following manner. […] Further, timings for collecting samples are set to immediately before the starting of reaction, 15 minutes after the start of reaction, and 30 minutes after the starting of reaction. At respective timings, 500 μl of aqueous solution in the reservoir is sampled using a micropipette and is added to 500 μl of 25 mM phosphoric acid potassium buffer solution (pH7.0) to which CLA is preliminarily added (1:1 mixture, total: 1 ml) and CLA luminescence is measured for 5 minutes after dropping the solution. The intensity of luminescence is indicated by relative luminescence unit (hereinafter referred to as rlu). […] Further, KO2 solution obtained by dissolving KO2 (potassium superoxide) in an organic solvent is added to CLA solution thus preparing a calibration curve of superoxide anion by chemiluminescence dependent on CLA. Generally, a method which dissolves KO2 in crown-ether-based organic solution and uses the solution for the determination of superoxide is used. However, to allow the reaction with CLA in aqueous solution in a non-hydrophobic environment, dimethylsulfoxide (DMSO) is used as organic solvent. Using this method, CLA luminescence by adding KO2 solution is induced whereby the calibration curve of superoxide anion radicals is prepared.

Row | Compound | concentration necessary to actually confirm the expression of the genes [1] | further results
1 | OO [hydrogen peroxide] | 2 to 10 mM | 
2 | C=CCOC1=NS(=O)(=O)c2ccccc21 [probenazole] |  | LC50 value (48 hours) for carp [2]: 8 ppm
3 | O=C(O)c1ccccc1O [salicylic acid] | 0.1 to 0.5 mM | 
4 | Potassium superoxide [KO2] |  | time for which emission of light is observed after dropping into water [3]: < 2 s
